Laboratory results taken from the NIST ThermoML archive (doi:10.1016/j.jct.2017.07.024).

What was measured:
[1] = wn = mass fraction of the nth substance listed; conditions: for surface tension liquid-gas: Maximal bubble pressure; for mass density: 100 kPa, Liquid, Vibrating tube method
[2] = refractive index (Na D-line) (dimensionless); wn = mass fraction of the nth substance listed; conditions: 100 kPa, Liquid, Standard Abbe refractometry

CCCCCn1cc[n+](C)c1.C[C@@H](O)[C@H](N)C(=O)[O-] [1-pentyl-3-methylimidazolium DL-threoninate] + O
Conditions | mass density, [1] [kg/m3] | refractive index, [2] | surface tension liquid-gas, [1] [mN/m]
288.15 K, w2 = 0.0066 | 1107.18 | 1.5071 | 38.8
288.15 K, w2 = 0.0097 | 1106.95 | 1.5067 | 39
288.15 K, w2 = 0.0119 | 1106.76 | 1.5064 | 39.2
288.15 K, w2 = 0.0141 | 1106.59 | 1.5061 | 39.4
288.15 K, w2 = 0.0165 | 1106.41 | 1.5058 | 39.6
293.15 K, w2 = 0.0066 | 1103.87 | 1.5056 | 38.4
293.15 K, w2 = 0.0097 | 1103.64 | 1.5053 | 38.6
293.15 K, w2 = 0.0119 | 1103.45 | 1.505 | 38.8
293.15 K, w2 = 0.0141 | 1103.28 | 1.5047 | 39
293.15 K, w2 = 0.0165 | 1103.1 | 1.5044 | 39.2
298.15 K, w2 = 0.0066 | 1100.56 | 1.504 | 38.2
298.15 K, w2 = 0.0097 | 1100.33 | 1.5037 | 38.4
298.15 K, w2 = 0.0119 | 1100.14 | 1.5034 | 38.6
298.15 K, w2 = 0.0141 | 1099.97 | 1.5032 | 38.8
298.15 K, w2 = 0.0165 | 1099.79 | 1.5028 | 39
303.15 K, w2 = 0.0066 | 1097.21 | 1.5024 | 37.8
303.15 K, w2 = 0.0097 | 1096.98 | 1.5021 | 38.1
303.15 K, w2 = 0.0119 | 1096.79 | 1.5017 | 38.3
303.15 K, w2 = 0.0141 | 1096.61 | 1.5015 | 38.5
303.15 K, w2 = 0.0165 | 1096.42 | 1.5012 | 38.7
308.15 K, w2 = 0.0066 | 1093.89 | 1.5009 | 37.5
308.15 K, w2 = 0.0097 | 1093.66 | 1.5006 | 37.8
308.15 K, w2 = 0.0119 | 1093.46 | 1.5003 | 38
308.15 K, w2 = 0.0141 | 1093.29 | 1.5 | 38.2
308.15 K, w2 = 0.0165 | 1093.09 | 1.4997 | 38.4
313.15 K, w2 = 0.0066 | 1090.6 | 1.4992 | 37.2
313.15 K, w2 = 0.0097 | 1090.36 | 1.4988 | 37.5
313.15 K, w2 = 0.0119 | 1090.16 | 1.4984 | 37.7
313.15 K, w2 = 0.0141 | 1089.98 | 1.4982 | 37.9
313.15 K, w2 = 0.0165 | 1089.78 | 1.4978 | 38.1
318.15 K, w2 = 0.0066 | 1087.14 | 1.4977 | 36.9
318.15 K, w2 = 0.0097 | 1086.89 | 1.4974 | 37.2
318.15 K, w2 = 0.0119 | 1086.69 | 1.497 | 37.4
318.15 K, w2 = 0.0141 | 1086.51 | 1.4967 | 37.6
318.15 K, w2 = 0.0165 | 1086.31 | 1.4963 | 37.9
323.15 K, w2 = 0.0066 | 1083.97 | 1.4961 | 36.6
323.15 K, w2 = 0.0097 | 1083.72 | 1.4957 | 36.9
323.15 K, w2 = 0.0119 | 1083.51 | 1.4954 | 37.1
323.15 K, w2 = 0.0141 | 1083.32 | 1.4951 | 37.3
323.15 K, w2 = 0.0165 | 1083.11 | 1.4947 | 37.6
328.15 K, w2 = 0.0066 | 1080.67 | 1.4945 | 36.3
328.15 K, w2 = 0.0097 | 1080.42 | 1.4941 | 36.6
328.15 K, w2 = 0.0119 | 1080.21 | 1.4937 | 36.8
328.15 K, w2 = 0.0141 | 1080.02 | 1.4934 | 37
328.15 K, w2 = 0.0165 | 1079.81 | 1.4931 | 37.3
